Source: US8383608B2, “Imidazolidine compounds as androgen receptor modulators” (Dart Therapeutics LLC, priority 2008, dated 2013)
Like-named read-outs stand apart in the source and are kept apart here.

Assays:
[1] = Determination of absolute bioavailability (restricted PK profile, oral and intravenous); format: in vivo; conditions: male, Sprague-Dawley, rat, plasma, po, 10 mg/kg, absolute bioavailability (F), male Sprague Dawley rats, oral 10 mg/kg AUC(0-6 h) vs intravenous 3 mg/kg AUC(0-3 h); read-out: Bioavailability
Method: To screen rapidly imidazolidines derivatives based on their absolute bioavailabity, restricted pharmacokinetic profile with only fours sampling time points after oral and intravenous route is investigated in Sprague Dawley rats as follows: each test compound is dosed orally (10 mg/kg) and intravenously (3 mg/kg) to groups of 3 male Sprague Dawley rats. Oral doses are administered as solution in EtOH/PEG400/H2O (1/79/20; v/v) by esophageal gavage (2 mg/mL; 5 mL/kg) and intravenous dose is given as solution in DMSO/PEG400/H2O (1/65/34; v/v) as a bolus in the tail vein (3 mg/mL; 1 mL/kg). Before oral dosing, animals are deprived of food (water ad libitum) for at least 16 hours before the start of the study and 6 hours after administration.
Blood is collected at the retro-orbital sinus into polypropylene tubes (Li-heparinate) at +4° C. at the following sampling-times: 0.083, 0.25, 1 and 3 h after intravenous injection and 0.25, 1, 3 and 6 hours after oral dosing. Three (3) animals are sampled per time-point; each animal being sampled four times. After centrifugation at 5000 rpm for 10 min at +4° C., plasma is collected into polypropylene tubes and kept frozen at −20° C. pending assays. Plasma samples are assayed by a LC-MS/MS method with a lower limit of quantification of 1 to 10 ng/mL depending on the compound (volume of plasma: 100 μL).
A LC-MS/MS method for quantification in heparinized plasma was developed for each test compound. Sample preparation consists of a precipitation of plasma proteins with methanol and filtration by centrifugation of supernatant on Captiva deep-well 96 0.2 μm filter plates. Water was added to methanol supernatant phase prior to analysis by liquid chromatography (Pursuit 5 C18 20×2.0 mm VARIAN, 2 μL loop, gradient Water/Methanol (90/10 to 0/100) over 1.7 min) with turboionspray tandem mass spectrometry (API4000) in negative mode using multiple reaction monitoring. The method includes 8 standard and 3 quality control levels with lower limit of quantification corresponding to first standard level.
Exposures are determined using a non compartmental model (WinNonLin 2.1) and the absolute bioavailability (F) is calculated as follows: [AUC(0-6 h) oral*3 mg/kg]/AUC(0-3 h) IV 10 mg/kg] and expressed in percentage.

[2] = tested on: castrated immature young rats; assay: Adapted model of Hershberger's test; format: in vivo, Sprague Dawley rats; conditions: Rattus norvegicus, po, 96 h, ORX control = 0%, SHAM control = 100%, per os daily for 4 days, dose tested 10 mg/kg
Method: The selective modulating activity of the androgen receptor is tested in a model of castrated immature young rats. This model, which is widely recognised for evaluating the anabolic effects of androgen compounds on the muscles and on the prostate, has been described by Hershberger et al. 1953 Proc. Soc. Expt. Biol. Med. 83:175.
The method is based on the measurement of the well-known effects of androgens on the growth of the muscles and the accessory male sex organs in animals, and also in men. The consequences of castration appear in the form of a rapid involution and atrophy of the prostate and the seminal vesicles and of the anus-lifting muscle (levator ani). This effect may be completely compensated by an exogeneous administration of androgen, in particular of testosterone. The model is thus used to determine the capacity of the tested molecules to maintain the weight of the accessory sex and muscle organs in immature castrated rats, and therefore their androgenic efficacy.
Immature young Sprague Dawley rats (4 to 5 weeks old) weighing approximately 140-160 g (Charles River, Les Oncins, FRANCE) are distributed randomly in various groups and are kept in an environment at 22±2° C. with an alternating day/night cycle of 12 hours and ad libitum access to food and drink.
On day 0 (seven days before commencement of the first treatment) the rats are weighed individually then anaesthetised with an intraperitoneal dose of Ketamine/xylazine (85/15 mg/kg, approximately 2 ml/kg). Each animal is then placed on a sterile field and the abdomen and the scrotum are disinfected with Betadine and 70% alcohol. In the case of the orchidectomised control animals (ORX), the testicles are removed via an incision in the middle of the scrotum. A sterile suture is then made to ligature the supra-testicular portion of the tissue prior to surgical section of each testicle. The groups of animals to be treated by the tested compounds are operated on in an identical manner. In the case of the intact control animals (SHAM), the testicles are similarly extracted and reintroduced delicately to their original location. The site of surgical intervention is then sutured using sterile suture thread, and the site is disinfected again by application of Betadine. Each animal is then kept under a sterile pad until it awoke, before being returned to its cage. The animals are kept in an environment at 22±2° C. with an alternating day/night cycle of 12 hours and ad libitum access to food and drink. The animals are treated with the molecules to be tested from post-surgery day 7 and until day 10 preceding sacrifice (day 11).
The rats are split into groups and treated daily from day 7 to day 10 under the conditions defined below: • 1. SHAM control group: Vehicle (PEG400/DMSO/water; 79/1/20) administered per os. • 2. ORX control group: Vehicle (PEG400/DMSO/water; 79/1/20) administered per os. • 3. Treated ORX group: The tested compounds are administered individually per os in suspension in the vehicle described above, in a dose of 10 mg/kg.
After treatment for 4 successive days, the animals are decapitated using a guillotine. The levator ani and the ventral prostate are removed and weighed individually. For comparing inter-experimental data, the weight of each organ is standardised and expressed in milligrammes per 100 g of the weight of the animal (W). For each organ, the average of the standardised weights of the ORX control group is fixed by definition at 0% and the average of the standardised weights of the SHAM control group is fixed by definition at 100%. The efficacy of each product is expressed as a percentage and calculated using the following formula: (Wtreated−WORX)/(WSHAM−WORX)×100
A subsequent ANOVA test is used for statistical analysis to identify the differences between groups.

[3] = levator ani weight, read-out: Anabolic activity %
[4] = ventral prostate weight, read-out: Androgenic activity % (Prostate)

Compound | bioavailability [1] [%] | response vs control in vivo at 10 mg/kg [2, 3] [%] | response vs control in vivo at 10 mg/kg [2, 4] [%]
CN1C(=O)N(c2ccc(C#N)c(C(F)(F)F)c2)C(=O)[C@@]1(CO)c1ccccc1 [Example 10, (S)-4-[2,5-Dioxo-4-(hydroxymethyl)-3-methyl-4-phenylimidazolidin-1-yl]-2-trifluoromethylbenzonitrile] | > 90 | 75 to 100 | 0.5 to 25
CN1C(=O)N(c2ccc(C#N)c(C(F)(F)F)c2)C(=O)C1(CO)c1ccc(Cl)cc1 (stereo not drawn) [Example 7, 4-[4-(4-Chlorophenyl)-2,5-dioxo-4-hydroxymethyl-3-methyl-imidazolidin-1-yl)-2-trifluoromethylbenzonitrile] | > 90 | 25 to 50 | 0
CCN1C(=O)N(c2ccc(C#N)c(C(F)(F)F)c2)C(=O)C1(CO)c1ccccc1 (stereo not drawn) [Example 12, 4-[2,5-Dioxo-3-ethyl-4-(hydroxymethyl)-4-phenylimidazolidin-1-yl]-2-trifluoromethylbenzonitrile] | 50 to 90 | 75 to 100 | 50 to 75
